The values below come from US11292798B2, “Merocyanine-based compound and biomolecular labeling dye, kit and contrast agent composition comprising same” (SFC CO., LTD., priority 2017, dated 2022).

The nature of the data set: absorption spectrum, light emission spectrum, molecular extinction coefficient and quantum efficiency in solvents. The format is physicochemical.

Regarding `COC(=O)C1=CC2=C3N(CCC2OC1=O)c1ccccc1C3(C)C` (centres unmarked) [Compound 1], under “solvent DMSO”, the “ε (molecular extinction coefficient)” value is 63,000 Lmol^−1cm^−1, the λem is recorded as 479 nm, the λex came to 456 nm and the “φ (quantum efficiency)” value amounted to 0.900.
Regarding `CC1(C)C2=C3C=C(C(=O)[O-])C(=O)OC3CCN2c2ccc(S(=O)(=O)[O-])cc21.[Na+].[Na+]` (centres unmarked) [Compound 2], the “ε (molecular extinction coefficient)” value by setting is: (solvent CH2Cl2) 20,000 Lmol^−1cm^−1; (solvent DMSO) 30,000 Lmol^−1cm^−1; (solvent H2O) 45,000 Lmol^−1cm^−1; (solvent MeOH) 50,000 Lmol^−1cm^−1; (solvent PBS) 44,000 Lmol^−1cm^−1. For the same compound, the λem reads like this: (solvent CH2Cl2) 495 nm; (solvent DMSO) 500 nm; (solvent H2O) 489 nm; (solvent MeOH) 493 nm; (solvent PBS) 487 nm. The λex reads like this: (solvent CH2Cl2) 429 nm; (solvent DMSO) 468 nm; (solvent H2O) 453 nm; (solvent MeOH) 463 nm; (solvent PBS) 451 nm. Further, the “φ (quantum efficiency)” value (solvent CH2Cl2) was 0.169; the “φ (quantum efficiency)” value (solvent DMSO) amounted to 0.768; the “φ (quantum efficiency)” value (solvent H2O) worked out at 0.718; the “φ (quantum efficiency)” value (solvent MeOH) is given as 0.625; the “φ (quantum efficiency)” value (solvent PBS) is reported as 0.796.
As for `CC1(C)C2=C3C=CC(=O)OC3CCN2c2ccc(S(=O)(=O)[O-])cc21.[Na+]` (centres unmarked) [Compound 3], the “ε (molecular extinction coefficient)” value is 22,000 Lmol^−1cm^−1 (solvent CH2Cl2); 27,000 Lmol^−1cm^−1 (solvent DMSO); 28,000 Lmol^−1cm^−1 (solvent H2O); 27,000 Lmol^−1cm^−1 (solvent MeOH); 28,000 Lmol^−1cm^−1 (solvent PBS). Moreover, the λem by setting is: (solvent CH2Cl2) 464 nm; (solvent DMSO) 470 nm; (solvent H2O) 492 nm; (solvent MeOH) 484 nm; (solvent PBS) 492 nm. Also, the λex is, setting by setting: (solvent CH2Cl2) 403 nm; (solvent DMSO) 416 nm; (solvent H2O) 423 nm; (solvent MeOH) 410 nm; (solvent PBS) 423 nm. In addition, the “φ (quantum efficiency)” value is, setting by setting: (solvent CH2Cl2) 0.227; (solvent DMSO) 0.645; (solvent H2O) 0.764; (solvent MeOH) 0.667; (solvent PBS) 0.759.
For `CC1(C)C2=C3C=C(C(=O)[O-])C(=O)OC3CCN2c2ccccc21.[Na+]` (centres unmarked) [Compound 5], under “solvent DMSO”, the “ε (molecular extinction coefficient)” value was 49,000 Lmol^−1cm^−1, the λem is recorded as 490 nm, the λex is reported as 466 nm and the “φ (quantum efficiency)” value came to 0.913. For the setting “solvent EtOH”, the “ε (molecular extinction coefficient)” value is on record as 51,000 Lmol^−1cm^−1, the λem stood at 485 nm, the λex was 462 nm and the “φ (quantum efficiency)” value came to 0.412. Also, where the note is “solvent H2O”, the “ε (molecular extinction coefficient)” value is recorded as 50,000 Lmol^−1cm^−1, the λem turned out to be 483 nm, the λex was found to be 452 nm and the “φ (quantum efficiency)” value is 0.062. Moreover, where the note is “solvent PBS”, the “ε (molecular extinction coefficient)” value was 49,000 Lmol^−1cm^−1, the λem is reported as 483 nm, the λex came to 454 nm and the “φ (quantum efficiency)” value came out at 0.633.
As for `COC(=O)C1=CC2=C3N(CCC2OC1=O)c1ccc2ccccc2c1C3(C)C` (centres unmarked) [Compound 6], for the setting “solvent DMSO”, the “ε (molecular extinction coefficient)” value is given as 53,000 Lmol^−1cm^−1, the λem stood at 503 nm, the λex is on record as 474 nm and the “φ (quantum efficiency)” value was determined as 0.928.
With `CC(=O)C1=CC2=C3N(CCC2OC1=O)c1ccc2ccccc2c1C3(C)C` (centres unmarked) [Compound 9], for the setting “solvent DMSO”, the “ε (molecular extinction coefficient)” value was 47,000 Lmol^−1cm^−1, the λem came to 516 nm, the λex came out at 492 nm and the “φ (quantum efficiency)” value is 0.910.
For `CC1(C)C2=C3C=C(C(=O)CCCC(=O)[O-])C(=O)OC3CCN2c2ccc3cc(S(=O)(=O)[O-])ccc3c21.[Na+].[Na+]` (centres unmarked) [Compound 16], the “ε (molecular extinction coefficient)” value runs as follows: (solvent CH2Cl2) 49,000 Lmol^−1cm^−1; (solvent DMSO) 47,000 Lmol^−1cm^−1; (solvent EtOH) 47,000 Lmol^−1cm^−1; (solvent H2O) 48,000 Lmol^−1cm^−1; (solvent PBS) 51,000 Lmol^−1cm^−1. The λem was found to be 515 nm (solvent CH2Cl2); 519 nm (solvent DMSO); 516 nm (solvent EtOH); 516 nm (solvent H2O); 516 nm (solvent PBS). Also, the λex is, setting by setting: (solvent CH2Cl2) 488 nm; (solvent DMSO) 494 nm; (solvent EtOH) 490 nm; (solvent H2O) 492 nm; (solvent PBS) 492 nm. Besides, the “φ (quantum efficiency)” value worked out at 0.137 (solvent CH2Cl2); 0.935 (solvent DMSO); 0.872 (solvent EtOH); 0.405 (solvent H2O); 0.417 (solvent PBS).
For the compound `COC(=O)C1=CC2=C3N(CCC2OC1=O)c1cc2c(cc1C3(C)C)-c1ccccc1C2(C)C` (centres unmarked) [Compound 60], the “ε (molecular extinction coefficient)” value by setting is: (solvent CH2Cl2) 41,000 Lmol^−1cm^−1; (solvent DMSO) 42,000 Lmol^−1cm^−1; (solvent EtOH) 42,000 Lmol^−1cm^−1; (solvent H2O) 38,000 Lmol^−1cm^−1. For the same compound, the λem runs as follows: (solvent CH2Cl2) 511 nm; (solvent DMSO) 513 nm; (solvent EtOH) 519 nm; (solvent H2O) 523 nm. The λex (solvent CH2Cl2) is on record as 470 nm, the λex (solvent DMSO) is given as 476 nm, the λex (solvent EtOH) was determined as 474 nm and the λex (solvent H2O) is 476 nm.
In the case of `CC1(C)C2=C3C=C(C(=O)O)C(=O)OC3CCN2c2cc3c(cc21)-c1ccccc1C3(C)C` (centres unmarked) [Compound 61], the “ε (molecular extinction coefficient)” value by setting is: (solvent CH2Cl2) 46,000 Lmol^−1cm^−1; (solvent DMSO) 47,000 Lmol^−1cm^−1; (solvent EtOH) 49,000 Lmol^−1cm^−1; (solvent H2O) 46,000 Lmol^−1cm^−1; (solvent PBS) 46,000 Lmol^−1cm^−1. The λem is, setting by setting: (solvent CH2Cl2) 522 nm; (solvent DMSO) 525 nm; (solvent EtOH) 525 nm; (solvent H2O) 516 nm; (solvent PBS) 518 nm. The λex is, setting by setting: (solvent CH2Cl2) 484 nm; (solvent DMSO) 480 nm; (solvent EtOH) 480 nm; (solvent H2O) 468 nm; (solvent PBS) 468 nm.
With `CCOC(=O)CCCC(=O)C1=CC2=C3N(CCC2OC1=O)c1ccc2ccccc2c1C3(C)C` (centres unmarked) [Compound 62], the “ε (molecular extinction coefficient)” value is recorded as 42,000 Lmol^−1cm^−1 (solvent CH2Cl2); 46,000 Lmol^−1cm^−1 (solvent DMSO); 47,000 Lmol^−1cm^−1 (solvent EtOH); 26,000 Lmol^−1cm^−1 (solvent H2O); 29,000 Lmol^−1cm^−1 (solvent PBS). The λem runs as follows: (solvent CH2Cl2) 511 nm; (solvent DMSO) 516 nm; (solvent EtOH) 516 nm; (solvent H2O) 520 nm; (solvent PBS) 520 nm. Further, the λex (solvent CH2Cl2) came out at 486 nm; the λex (solvent DMSO) is on record as 492 nm; the λex (solvent EtOH) came out at 486 nm; the λex (solvent H2O) came out at 468 nm; the λex (solvent PBS) turned out to be 486 nm. For the same compound, the “φ (quantum efficiency)” value runs as follows: (solvent CH2Cl2) 0.944; (solvent DMSO) 0.958; (solvent EtOH) 0.820; (solvent H2O) 0.194; (solvent PBS) 0.193.
Take `CC1(C)C2=C3C=C(CC(=O)O)C(=O)OC3CCN2c2ccccc21` (centres unmarked) [Compound 63]: the “ε (molecular extinction coefficient)” value by setting is: (solvent CH2Cl2) 15,000 Lmol^−1cm^−1; (solvent DMSO) 15,000 Lmol^−1cm^−1; (solvent EtOH) 15,000 Lmol^−1cm^−1; (solvent H2O) 17,000 Lmol^−1cm^−1; (solvent PBS) 17,000 Lmol^−1cm^−1. Also, the λem is, setting by setting: (solvent CH2Cl2) 466 nm; (solvent DMSO) 470 nm; (solvent EtOH) 485 nm; (solvent H2O) 506 nm; (solvent PBS) 507 nm. Further, the λex is, setting by setting: (solvent CH2Cl2) 414 nm; (solvent DMSO) 416 nm; (solvent EtOH) 416 nm; (solvent H2O) 432 nm; (solvent PBS) 434 nm.
For `CC1(C)C2=C3C=C(CC(=O)[O-])C(=O)OC3CCN2c2ccc(S(=O)(=O)[O-])cc21.[Na+].[Na+]` (centres unmarked) [Compound 64], the “ε (molecular extinction coefficient)” value runs as follows: (solvent CH2Cl2) 22,000 Lmol^−1cm^−1; (solvent DMSO) 26,000 Lmol^−1cm^−1; (solvent EtOH) 28,000 Lmol^−1cm^−1; (solvent H2O) 26,000 Lmol^−1cm^−1; (solvent PBS) 27,000 Lmol^−1cm^−1. Besides, the λem reads like this: (solvent CH2Cl2) 468 nm; (solvent DMSO) 472 nm; (solvent EtOH) 483 nm; (solvent H2O) 500 nm; (solvent PBS) 503 nm. For the same compound, the λex by setting is: (solvent CH2Cl2) 414 nm; (solvent DMSO) 412 nm; (solvent EtOH) 408 nm; (solvent H2O) 422 nm; (solvent PBS) 423 nm. Further, the “φ (quantum efficiency)” value was found to be 0.01 (solvent CH2Cl2); 0.84 (solvent DMSO); 0.78 (solvent EtOH); 0.91 (solvent H2O); 0.95 (solvent PBS).
